Publication PMC3311015 (Proceedings of the Japan Academy. Series B, Physical and …, 2011)
Where two headings read alike, the source gives them in different places.

Assays:
[1] = rat, in vivo, 10 mg/kg; cited from earlier work
[2] = target: T1, D-amino acid oxidase (DAAO) (Rattus norvegicus, UniProt O35078); assay: DAAO-inhibitory effect of MPC in vivo (change of plasma D-Trp concentration after MPC pretreatment); parameters: species or system Male SD rats; settings: MPC 50 mg·kg^−1 i.p. 30 min before D-Trp 100 mg·kg^−1 i.p.
T1 construct: Male SD rats were purchased from Charles River Japan; from tissue; host or cells: whole animal (male SD rats); DAAO activity is attributed to liver and kidney cells
T1 sequence (O35078 whole entry): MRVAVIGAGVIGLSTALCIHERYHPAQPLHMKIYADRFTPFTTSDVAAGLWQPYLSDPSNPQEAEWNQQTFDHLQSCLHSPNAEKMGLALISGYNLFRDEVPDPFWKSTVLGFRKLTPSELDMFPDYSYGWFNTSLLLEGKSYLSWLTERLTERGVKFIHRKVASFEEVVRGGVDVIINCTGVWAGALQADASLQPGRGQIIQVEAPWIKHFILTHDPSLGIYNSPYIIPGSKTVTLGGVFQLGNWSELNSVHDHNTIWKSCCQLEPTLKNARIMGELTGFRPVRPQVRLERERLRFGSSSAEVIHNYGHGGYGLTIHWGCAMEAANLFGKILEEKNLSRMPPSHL
Description: (§1) Administration of Ket to rats was carried out as previously reported.[9]) Ketamine hydrochloride (Wako Pure Chemicals Co., Ltd., Osaka, Japan) was dissolved in physiological saline ([…]) and then intraperitoneally (i.p.) administered (30 mg·kg^−1) to 7-week-old rats daily for 5 consecutive days. The control animals received only saline (1 mL·kg^−1·day^−1). The rats were used for experiments 4 weeks after cessation of the ketamine or saline treatment.
(§2) D-Trp was dissolved in PBS (10 mg·mL^−1) and administered i.p. to control or Ket-treated rats (100 mg·kg^−1; n = 3–5) at 30 min after i.p. administration of MPC (50 mg·kg^−1). A heparinized syringe with a 25-gauge needle was used to draw blood (approximately 0.20 mL) from the left jugular vein 0.5, 1, 1.5, 2, 3, 4, 5, and 6 h after administration of D-Trp. The blood was treated in a similar manner as described in previous paper.[17]) Plasma D-Trp concentration was determined by our previously published HPLC method.[17])
(§3) Pharmacokinetic parameters obtained in the present study were determined by a simplex method analysis or moment analysis. Statistical analyses were performed using a one-way analysis of variance (ANOVA), followed by Bonferroni’s multiple comparison test. A p value below 0.05 was judged as a significant difference.

in vivo [3] = type: in vivo, Male SD rats
Description: as §1
A solution of MPC (5.0 or 50 mg·kg^−1·3 mL^−1) was prepared in PBS/ethanol/PEG (2.8/0.1/0.1) and was i.p. administered to rats. A heparinized syringe with a 25-gauge needle was used to draw blood (approximately 0.20 mL) from the left jugular vein at 0.083, 0.25, 0.5, 1, 2, and 3 h after administration of MPC (5.0 mg·kg^−1, n = 4), or at 0.083, 0.25, 0.5, 1, and 3 h after administration of MPC (50 mg·kg^−1, n = 5–6). Before administration of either dose of MPC, blood (approximately 0.20 mL) was obtained from each rat and used as the control. The blood was centrifuged at 3,000 g for 10 min at 4℃ to obtain plasma. The plasma was transferred to another tube and stored at −80℃ until it was analyzed.
For determining the plasma concentration of MPC, 2 calibration curves (31.25–250 µM and 200–800 µM) were constructed. Ten microliters of PBS or rat blank plasma was spiked with 10 µL of 31.25–800 µM MPC dissolved in CH3CN and 10 µL of 200 µM I.S. dissolved in CH3CN, and vigorously mixed with 70 µL of CH3CN/MeOH (50/50). In the case of plasma samples from the rats administered MPC, 10 µL of CH3CN was used instead of MPC in CH3CN.
After centrifugation at 2,500 rpm for 5 min, 50 µL of the supernatant was sampled and evaporated in vacuo. The obtained residue was dissolved in 100 µL of the mobile phase, 60 µL (31.25–250 µM) or 20 µL (200–800 µM) of the final solution after filtration with Durapore® (0.2 µm membrane, Millipore K.K., Tokyo, Japan), and was injected into the LC-MS system.
The LC-MS apparatus comprised an Agilent 1200 series HPLC (Agilent Technologies, CA, U.S.A.) and a time of flight (TOF)-MS, JMS-T100 LP AccuTOF LC-Plus, equipped with an electrospray ionization (ESI) source (JEOL Co. Ltd., Tokyo, Japan). The separation column used in this study was TSKgel ODS-80Ts QA (150 mm × 2.0 mm; i.d., 5 µm) (Tosoh Corporation, Tokyo, Japan). For the mobile phase, 0.1% HCO2H in H2O/CH3CN (95/5) was eluted isocratically at 0.16 mL·min^−1. Column temperature was maintained at 40℃. The conditions for ESI-MS detection were as follows: positive ion mode; needle voltage was set at 2,000 V; and the ring lens and orifice 1 and 2 voltages were set at 8, 49, and 4 V, respectively. Nitrogen was used as the nebulizing and desolvating gas, and the pressure was constant at 0.617 MPa. The desolvation chamber and orifice 1 temperatures were 250℃ and 80℃, respectively. The data were obtained using Mass Center software, MS-56010MP (JEOL).
as §3

DAAO = system: DAAO; parameters: method as in PMID 20801337; settings: D-Trp as substrate for DAAO; cited from earlier work
in vivo [4] = assay: in vivo; parameters: species or system Male SD rats; settings: D-Trp i.p. 100 mg·kg^−1; for AUC / Cmax / k el / half-life: male, SD, rat, in vivo, ip, 100 mg/kg; for AUC: read-out: AUC of plasma D-Trp; for Cmax: read-out: Cmax of plasma D-Trp; for k el: read-out: Ke of plasma D-Trp (converted); for half-life: read-out: t1/2 of plasma D-Trp
Description: as §1
as §2, with “D-Trp was dissolved in PBS (10 mg·mL^−1) and administered i.p. to control or Ket-treated rats (100 mg·kg^−1; n = 3–5) at 30 min after i.p. administration of MPC (50 mg·kg^−1).” left out
as §3

[5] = rat; cited from earlier work
[6] = Ket-treated rat, with pretreatment of MPC (50 mg·kg^−1)
[7] = Ket-treated rat, without pretreatment of MPC
[8] = control rat, with pretreatment of MPC (50 mg·kg^−1)
[9] = control rat, without pretreatment of MPC

With `Cc1cc(C(=O)O)n[nH]1` [MPC, 3-methylpyrazole-5-carboxylic acid] as the compound, how does the “clearance (CL) of plasma MPC” value [1] read?
The value was 3.67 mL/min/kg.

And the “t1/2 of plasma MPC” value [1]?
The value was 335 min.

What about the “plasma D-Trp concentrations after MPC pretreatment compared with no pretreatment” value ([2]; Ket-treated rats) of the same compound?
The value was “no significant increase”.

And the “plasma D-Trp concentrations after MPC pretreatment compared with no pretreatment” value ([2]; control rats)?
Its value is “significantly higher”.

What about the “differences in PK parameters (Cmax, t1/2, AUC) of plasma MPC between control and Ket-treated rats” value (in vivo [3]; MPC i.p. 5.0 mg·kg^−1) of the same compound?
The value was “no remarkable differences”.

And the “time at which the maximum concentration (Cmax) of plasma MPC was reached” value (in vivo [3]; MPC i.p. 5.0 mg·kg^−1, Ket-treated rats)?
Its value is 0.5 h.

What about the “time at which the maximum concentration (Cmax) of plasma MPC was reached” value (in vivo [3]; MPC i.p. 5.0 mg·kg^−1, control rats) of the same compound?
Its value is 0.5 h.

And the “Cmax value of plasma MPC concentration in Ket-treated rats compared with control group” value (in vivo [3]; MPC i.p. 50 mg·kg^−1)?
The value was “significantly higher”.

What about the “plasma MPC concentrations at 5.0 and 15 min in Ket-treated rats compared with control groups” value (in vivo [3]; MPC i.p. 50 mg·kg^−1, p < 0.01 and p < 0.05) of the same compound?
The value was “significantly higher”.

What about the “clearance (CL) of plasma MPC” value (in vivo [3]; control rats, i.p. administration, present data) of the same compound?
The value was 305 mL/min/kg.

What about the half-life (in vivo [3]; male, SD, rat, in vivo, ip, control rats, i.p. administration, present data, read-out: t1/2 of plasma MPC) of the same compound?
Its half-life is 50.8 min.

Which results are given for `N[C@H](Cc1c[nH]c2ccccc12)C(=O)O` [D-Trp, D-tryptophan]?
Km (DAAO): 845 µM; CL of plasma D-Trp (in vivo [4]; [6]): 6.73 ± 1.67 mL/min/kg; Vd of plasma D-Trp (in vivo [4]; [6]): 0.544 ± 0.09 L/kg; CL of plasma D-Trp (in vivo [4]; [7]): 11.6 ± 1.83 mL/min/kg; Vd of plasma D-Trp (in vivo [4]; [7]): 0.703 ± 0.07 L/kg; CL of plasma D-Trp (in vivo [4]; [8]): 3.05 ± 0.17 mL/min/kg; Vd of plasma D-Trp (in vivo [4]; [8]): 0.237 ± 0.02 L/kg; CL of plasma D-Trp (in vivo [4]; [9]): 10 ± 0.33 mL/min/kg; Vd of plasma D-Trp (in vivo [4]; [9]): 0.712 ± 0.04 L/kg; AUC (in vivo [4]; [6]): 983 ± 128 µM·h; Cmax (in vivo [4]; [6]): 608 ± 115 µM; k el (in vivo [4]; [6]): 0.0002 s⁻¹; half-life (in vivo [4]; [6]): 60.2 ± 6.1 min; AUC (in vivo [4]; [7]): 719 ± 63.6 µM·h; Cmax (in vivo [4]; [7]): 587 ± 33.5 µM; k el (in vivo [4]; [7]): 0.000269 s⁻¹; half-life (in vivo [4]; [7]): 43.7 ± 2.79 min; AUC (in vivo [4]; [8]): 2080 ± 138 µM·h; Cmax (in vivo [4]; [8]): 1130 ± 75 µM; k el (in vivo [4]; [8]): 0.000214 s⁻¹; half-life (in vivo [4]; [8]): 54 ± 0.1 min; AUC (in vivo [4]; [9]): 693 ± 42.9 µM·h; Cmax (in vivo [4]; [9]): 567 ± 42.6 µM; k el (in vivo [4]; [9]): 0.000236 s⁻¹; half-life (in vivo [4]; [9]): 49.1 ± 1.3 min

Which half-life in plasma [5] does the source give for `CNC1(c2ccccc2Cl)CCCCC1=O` (centres unmarked) [ketamine] here?
The half-life in plasma was 30 to 36 min.

With `NC1(c2ccccc2Cl)CCCCC1=O` (centres unmarked) [norketamine] as the compound, how does the half-life in plasma [5] read?
Its half-life in plasma is 36 to 48 min.
